Results on two sequences are retold here after patent US20220033448A1, “METHODS FOR AGGREGATION OF PROTEINS” (priority 2011, published 2022).

No end group written: not given here.

One data set concerns Candida albicans SC5314. Kind of data set: C. albicans SC5314 adhesion on 96-well polystyrene plates (XTT reduction assay). The class given is cell-based. Particulars: 90 min adhesion at 37° C. On the procedure:
In a next step, lower concentrations of peptide F9 (50 μM, 10 μM and 2.5 μM) were also tested. First, we elucidated the effect of peptide F9 during the period of adhesion (90 min at 37° C.). Then, we tested its effect on further biofilm development, by changing the medium with fresh RPMI1640-MOPS, in the absence of peptide for 48 h. Both assays were performed in 96-well polystyrene plates and quantified by the XTT reduction assay (see material and methods section).
In vitro C. albicans biofilm was studied on three different types of biomaterials, namely flat bottom 96-well polystyrene plate (Greiner Bio-One, Germany), silicone (CS Hyde, USA) and polyurethane triple lumen intravenous catheters (2.4mm diameter) (Arrow International Reading, USA). […] After that, the biofilms were washed twice with 1×PBS and quantified.
The metabolic activity of Candida cells within in vitro biofilms was studied using the XTT reduction assay. This method is based on colorimetric change of a specific substrate—XTT (2,3-bis(2-methoxy-4-nitro-5-sulpho-phenyl)-2H-tetrazolium-5-carboxanilide) (Sigma, USA) which is reduced to XTT formazan by mitochondrial dehydrogenases of metabolic active cells measured by spectrophotometer at 490 nm. […] The intensity of colorimetric change was measured by spectrophotometer (Spectra max Plus 384) at 490 nm. […]

The subject of another data set is S. hominis. Particulars: S. hominis; planktonic; 18 hours.
Data set [1] deals with Human embryonic kidney (HEK293T) cells. Particulars: 50 μg/ml (C30: 50 μg/ml or beyond).
A further data set has as its system Nocardia asteroides. Particulars: Nocardia asteroides ATCC 3308; planktonic; 18 hours.

Experimental for Nocardia asteroides: (§1) Bacteria were grown in a shaking incubator at 37° C. and 160rpm in 50 ml BHI , using individual colonies retrieved from a fresh overnight TSA-sheep blood plate. The cultures were grown to a density of approximately 1×10^8cells/ml and then diluted to 5×10^5 cells/ml in CAMHB (Mc Farland 0.5). Each well contained 100p.I (50p.I of peptide containing MHB plus 50 μl inoculum). The final cell density was 1×10^5 to 5×10^5/ml. After addition of the cell suspension, plates were incubated at 37° C. for 18 to 24 hours. The optical density at 590 nm (OD590) of each well was measured after 5 seconds of shaking the plate using Perkin Elmer spectrophotometer (1420 Multilabel Counter Vicotr 3). […] Each well, where no growth was observed, was also plated on TSA-sheep blood agar plates, incubated at 37° C. overnight and visually inspected.
(§2) A microbroth dilution method was used with twofold serial dilutions in CAMHB (according to EMEA guidelines) was used for screening of peptide activity, with concentrations ranging from 0.3 μg/mIto 200 μg/ml.
Experimental for S. hominis: as §1, §2

As to RKLLFNLGSRNGIVIVATTR [F9], the “adhesion of C. albicans SC5314 on polystyrene” value is given as “dramatically decreased adhesion properties of Candida cells” in the data set with Candida albicans SC5314 (2.5 μM peptide); “almost completely abolished Candida attachment” in the data set on Candida albicans SC5314 (50 μM and 10 μM peptide).
In the case of RILLGLIRRGSRILLGLIRR [C30], the figures for the MIC result against S. hominis and in the data set with Nocardia asteroides were “S. hominis: 3 μg/ml” and “Nocardia asteroides ATCC 3308: 1.5 μg/ml”, respectively. In addition, the LDH release entry in data set [1] is on record as “higher than 50%”.
